Activity calls are given as the source filed them. The rule behind the calls is not given here.
Assays:
[1] = tested on: Mast/stem cell growth factor receptor Kit (Homo sapiens), P10721 [V654A]; settings: Mus musculus
Description: Inhibition of c-KIT V654A mutant in mouse BAF3(transformed) cells assessed as growth inhibition after 72 hrs by CCK8 assay

[2] = target: T1, Mast/stem cell growth factor receptor Kit (Homo sapiens, UniProt P10721, 560-578DEL/T670I)
[3] = target: T2, Mast/stem cell growth factor receptor Kit (Homo sapiens, UniProt P10721, 560-578DEL); format: cell-based, GISTT1
[4] = target: T3, Macrophage colony-stimulating factor 1 receptor (Homo sapiens, UniProt P07333); experiment: Inhibition of recombinant human His-tagged CSF1R cytoplasmic domain (538 to 910 residues) expressed in baculovirus expression system by Z-lyte assay
Mus musculus [5] = format: functional, organism-based; settings: BALB/c, 80 mg/kg, TDE = time-dependent effect
[6] = tested on: Mast/stem cell growth factor receptor Kit (Homo sapiens), P10721 [K642E]
Mus musculus [7] = format: functional, organism-based; settings: BALB/c, 80 mg/kg
[8] = target: Platelet-derived growth factor receptor alpha (Homo sapiens, UniProt P16234); experiment: Binding affinity to wild-type human partial length PDGFRA (V575 to D1002 residues) expressed in mammalian expression system assessed as residual binding level at 1 uM by Kinomescan method relative to control
[9] = Cmax in mouse at 10 mg/kg, po by LC-MS/MS analysis; format: ADME, organism-based; design: dose 10 mg/kg, route oral; settings: in vivo
GISTT1 [10] = format: functional, cell-based; settings: Homo sapiens
[11] = Tmax in Sprague-Dawley rat at 10 mg/kg, po by LC-MS/MS analysis; format: ADME, organism-based; settings: in vivo
[12] = tested on: Mast/stem cell growth factor receptor Kit (Homo sapiens), P10721 [UNDEFINED MUTATION]; settings: GISTT1
Description: Inhibition of c-KIT 560 to 578 deletion/T670I mutant in human GISTT1 cells assessed as growth inhibition after 72 hrs by CCK8 assay

[13] = Protein binding in plasma (unknown origin); format: ADME, cell-free; settings: read-out: PPB
GISTT1 [14] = format: functional, Homo sapiens
[15] = AUC (0 to t) in mouse at 1 mg/kg, iv by LC-MS/MS analysis; format: ADME, organism-based; settings: in vivo
[16] = target: Epithelial discoidin domain-containing receptor 1 (Homo sapiens, UniProt Q08345); experiment: Inhibition of human GST-tagged DDR1 catalytic domain (440 to 876 residues) expressed in baculovirus expression system by Lanthascreen Eu-binding assay
[17] = target: T1, Mast/stem cell growth factor receptor Kit; remark: listed apart in the source
[18] = Half life in Beagle dog at 5 mg/kg, po by LC-MS/MS analysis; format: ADME, organism-based, Canis lupus familiaris; settings: in vivo
Mus musculus [19] = format: functional, organism-based; settings: BALB/c, 80 mg/kg; remark: listed apart in the source
[20] = target: T2, Mast/stem cell growth factor receptor Kit; format: cell-based, GISTT1; remark: listed apart in the source
[21] = target: Serine/threonine-protein kinase 10 (Homo sapiens) (UniProt O94804); experiment: Binding affinity to wild-type human partial length LOK (E16 to V314 residues) expressed in bacterial expression system assessed as residual binding level at 1 uM by Kinomescan method relative to control
[22] = AUC (0 to t) in Sprague-Dawley rat at 10 mg/kg, po by LC-MS/MS analysis; format: ADME, organism-based; settings: in vivo
[23] = Toxicity in BALB/c nu mouse implanted with mouse BAF3(transformed) cells harboring c-KIT D820G mutant assessed as change in body weight at 40 to 80 mg/kg/day, po administered via gavage for 9 days measured daily during compound dosing; format: organism-based; settings: in vivo, 216 h
[24] = target: T1, Mast/stem cell growth factor receptor Kit; remark: listed apart in the source
[25] = target: T1, Mast/stem cell growth factor receptor Kit; format: cell-based, GISTT1
[26] = target: T3, Macrophage colony-stimulating factor 1 receptor; experiment: Binding affinity to wild-type human partial length CSF1R (I564 to S939 residues) expressed in bacterial expression system assessed as residual binding level at 1 uM by Kinomescan method relative to control
[27] = target: RAC-alpha serine/threonine-protein kinase (Homo sapiens) (UniProt P31749); format: cell-based
[28] = Half life in Sprague-Dawley rat at 1 mg/kg, iv by LC-MS/MS analysis; format: ADME, organism-based; settings: in vivo
[29] = Tmax in Beagle dog at 1 mg/kg, iv by LC-MS/MS analysis; format: ADME, organism-based, Canis lupus familiaris; settings: in vivo
[30] = Cmax in Beagle dog at 1 mg/kg, iv by LC-MS/MS analysis; format: ADME, organism-based, Canis lupus familiaris; design: dose 1 mg/kg, route intravenous; settings: in vivo
Homo sapiens = species on record: Homo sapiens; format: functional, cell-based
[31] = tested on: Mast/stem cell growth factor receptor Kit (Homo sapiens), P10721 [UNDEFINED MUTATION]; settings: GISTT1, 0.1 uM
Description: Inhibition of c-KIT 560 to 578 deletion/T670I mutant in human GISTT1 cells assessed as reduction in ERK phosphorylation at T204 residue at 0.1 uM measured after 2 hrs by Western blot analysis

[32] = tested on: Mast/stem cell growth factor receptor Kit (Homo sapiens), P10721 [UNDEFINED MUTATION]; settings: 0.1 uM
Description: Inhibition of c-KIT 560 to 578 deletion/T670I mutant in human GIST5R assessed as reduction in STAT3 phosphorylation at Y705 residue at 0.1 uM measured after 2 hrs by Western blot analysis

[33] = tested on: Mast/stem cell growth factor receptor Kit (Homo sapiens), P10721 [UNDEFINED MUTATION]; settings: 0.1 uM; remark: listed apart in the source
Description: Inhibition of c-KIT 560 to 578 deletion/T670I mutant in human GIST5R assessed as reduction in ERK phosphorylation at T204 residue at 0.1 uM measured after 2 hrs by Western blot analysis

[34] = tested on: Mast/stem cell growth factor receptor Kit (Homo sapiens), P10721 [UNDEFINED MUTATION]; settings: GISTT1, 0.1 uM; remark: listed apart in the source
Description: Inhibition of c-KIT 560 to 578 deletion mutant in human GISTT1 cells assessed as reduction in ERK phosphorylation at T204 residue at 0.1 uM measured after 2 hrs by Western blot analysis

[35] = tested on: Mast/stem cell growth factor receptor Kit (Homo sapiens), P10721 [UNDEFINED MUTATION]; settings: GISTT1, 0.1 uM; remark: listed apart in the source
Description: Inhibition of c-KIT 560 to 578 deletion/T670I mutant in human GISTT1 cells assessed as reduction in pS6 phosphorylation at S236 residue at 0.1 uM measured after 2 hrs by Western blot analysis

[36] = tested on: Mast/stem cell growth factor receptor Kit (Homo sapiens), P10721 [UNDEFINED MUTATION]; settings: GISTT1, 0.1 uM; remark: listed apart in the source
Description: Inhibition of c-KIT 560 to 578 deletion mutant in human GISTT1 cells assessed as reduction in AKT phosphorylation at T308 residue at 0.1 uM measured after 2 hrs by Western blot analysis

Mast/stem cell growth factor receptor Kit (Homo sapiens), P10721 [UNDEFINED MUTATION], sequence (P10721 whole entry, looked up, change not shown): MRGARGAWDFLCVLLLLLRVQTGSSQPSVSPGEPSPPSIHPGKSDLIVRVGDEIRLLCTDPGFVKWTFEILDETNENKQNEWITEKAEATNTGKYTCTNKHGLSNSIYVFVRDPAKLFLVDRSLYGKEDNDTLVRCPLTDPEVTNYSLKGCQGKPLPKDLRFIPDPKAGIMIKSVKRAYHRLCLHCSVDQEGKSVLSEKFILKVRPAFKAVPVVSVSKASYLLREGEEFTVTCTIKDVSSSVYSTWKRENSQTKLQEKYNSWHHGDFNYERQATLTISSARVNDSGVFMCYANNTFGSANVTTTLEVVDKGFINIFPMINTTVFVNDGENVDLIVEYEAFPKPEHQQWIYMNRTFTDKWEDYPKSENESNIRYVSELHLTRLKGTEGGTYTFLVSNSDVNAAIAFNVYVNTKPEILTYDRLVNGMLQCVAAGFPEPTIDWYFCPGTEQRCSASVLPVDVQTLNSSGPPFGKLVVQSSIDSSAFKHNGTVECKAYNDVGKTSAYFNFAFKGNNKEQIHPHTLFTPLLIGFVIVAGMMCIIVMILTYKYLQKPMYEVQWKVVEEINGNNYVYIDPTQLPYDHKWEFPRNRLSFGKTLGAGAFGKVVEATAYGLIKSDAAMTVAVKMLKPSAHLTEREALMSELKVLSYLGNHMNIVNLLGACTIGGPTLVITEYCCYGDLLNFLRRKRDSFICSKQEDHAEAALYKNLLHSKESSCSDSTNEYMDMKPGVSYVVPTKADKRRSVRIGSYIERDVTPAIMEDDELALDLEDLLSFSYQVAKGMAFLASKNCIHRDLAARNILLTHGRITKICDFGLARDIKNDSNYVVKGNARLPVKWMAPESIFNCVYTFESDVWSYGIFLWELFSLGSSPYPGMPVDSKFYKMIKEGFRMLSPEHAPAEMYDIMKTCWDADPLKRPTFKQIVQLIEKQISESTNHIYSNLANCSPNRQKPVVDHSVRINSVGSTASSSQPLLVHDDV
T1 sequence (P10721 whole entry, looked up, stated change not applied): as the sequence (P10721 whole entry, looked up, change not shown) above
T2 sequence (P10721 whole entry, looked up, stated change not applied, the tested form may be a part): as the sequence (P10721 whole entry, looked up, change not shown) above
T3 sequence (P07333 whole entry, the tested form may be a part): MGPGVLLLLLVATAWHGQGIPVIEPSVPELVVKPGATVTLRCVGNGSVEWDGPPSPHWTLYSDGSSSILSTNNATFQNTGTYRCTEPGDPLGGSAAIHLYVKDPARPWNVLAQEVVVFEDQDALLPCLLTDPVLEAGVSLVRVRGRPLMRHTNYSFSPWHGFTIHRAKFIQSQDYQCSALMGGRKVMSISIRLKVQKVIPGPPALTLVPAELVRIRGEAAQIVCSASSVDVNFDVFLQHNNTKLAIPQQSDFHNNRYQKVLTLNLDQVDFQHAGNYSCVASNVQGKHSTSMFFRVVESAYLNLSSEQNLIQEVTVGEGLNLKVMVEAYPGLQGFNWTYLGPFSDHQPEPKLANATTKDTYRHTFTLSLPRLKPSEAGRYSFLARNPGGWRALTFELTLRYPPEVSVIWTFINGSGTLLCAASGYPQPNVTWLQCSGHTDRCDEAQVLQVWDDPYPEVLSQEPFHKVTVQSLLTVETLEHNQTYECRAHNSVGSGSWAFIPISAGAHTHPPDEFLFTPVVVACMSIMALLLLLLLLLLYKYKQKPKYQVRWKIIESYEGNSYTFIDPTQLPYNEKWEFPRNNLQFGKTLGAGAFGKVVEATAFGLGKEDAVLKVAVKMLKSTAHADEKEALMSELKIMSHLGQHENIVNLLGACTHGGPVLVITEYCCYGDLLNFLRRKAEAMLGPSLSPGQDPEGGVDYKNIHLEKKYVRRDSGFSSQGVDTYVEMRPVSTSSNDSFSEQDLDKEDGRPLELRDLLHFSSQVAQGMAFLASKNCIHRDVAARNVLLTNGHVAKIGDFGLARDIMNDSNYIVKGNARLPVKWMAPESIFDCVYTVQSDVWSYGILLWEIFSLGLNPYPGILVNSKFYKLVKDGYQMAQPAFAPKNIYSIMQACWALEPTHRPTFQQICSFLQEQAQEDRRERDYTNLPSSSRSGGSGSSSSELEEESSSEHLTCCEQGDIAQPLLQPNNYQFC
Serine/threonine-protein kinase 10 (Homo sapiens), sequence (O94804 whole entry, looked up, the tested form may be a part): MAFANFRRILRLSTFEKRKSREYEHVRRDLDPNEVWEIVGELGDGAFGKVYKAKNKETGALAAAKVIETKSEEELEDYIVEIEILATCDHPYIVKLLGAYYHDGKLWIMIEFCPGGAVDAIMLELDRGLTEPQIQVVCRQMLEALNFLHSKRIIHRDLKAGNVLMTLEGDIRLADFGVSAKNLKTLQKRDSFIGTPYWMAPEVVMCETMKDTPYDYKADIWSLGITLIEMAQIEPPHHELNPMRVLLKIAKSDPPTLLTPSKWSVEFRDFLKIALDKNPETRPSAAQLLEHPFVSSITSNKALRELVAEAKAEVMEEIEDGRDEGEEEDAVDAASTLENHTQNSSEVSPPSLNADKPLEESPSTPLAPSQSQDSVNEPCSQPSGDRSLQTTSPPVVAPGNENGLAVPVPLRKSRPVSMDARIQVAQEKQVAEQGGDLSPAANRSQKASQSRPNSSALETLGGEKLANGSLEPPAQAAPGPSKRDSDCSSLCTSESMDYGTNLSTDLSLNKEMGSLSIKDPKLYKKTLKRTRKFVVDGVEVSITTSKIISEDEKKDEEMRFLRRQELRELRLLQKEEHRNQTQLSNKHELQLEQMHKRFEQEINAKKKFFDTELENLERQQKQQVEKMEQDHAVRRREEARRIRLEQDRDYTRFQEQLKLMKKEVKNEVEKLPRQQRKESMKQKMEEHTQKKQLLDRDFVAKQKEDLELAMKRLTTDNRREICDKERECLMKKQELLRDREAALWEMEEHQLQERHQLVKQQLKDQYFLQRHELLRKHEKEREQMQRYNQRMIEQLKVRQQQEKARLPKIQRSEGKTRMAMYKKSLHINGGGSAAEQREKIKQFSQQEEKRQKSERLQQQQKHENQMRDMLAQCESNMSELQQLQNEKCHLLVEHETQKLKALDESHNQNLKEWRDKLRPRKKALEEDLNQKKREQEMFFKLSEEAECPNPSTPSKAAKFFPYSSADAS

For `COc1cc2nccc(Oc3ccc(NC(=O)Cc4ccc(Cl)c(C(F)(F)F)c4)cc3)c2cc1OC`, the GI50 [1] was 320 nM, the EC50 [2] was under 100 nM and the EC50 [3] was under 100 nM. For the same compound, the IC50 [4] was 18 nM, the inhibition (Mus musculus [5]) was “Tde” and the GI50 [6] was 13 nM. The inhibition (Mus musculus [7]) was “inactive”, the Activity [8] was under 1% and the Cmax [9] was 1390 ng/mL. The Activity (GISTT1 [10]) was “Dose-dependent effect”, the Tmax [11] was 9 h and the GI50 [12] was 6 nM. The fraction unbound [13] was under 0.1, the Activity (GISTT1 [14]) was 0.2 g and the AUC(0-t) [15] was 2990 ng·h/mL. It also gave an IC50 [16] of 135 nM, an EC50 [17] of under 100 nM and a half-life [18] of 19.4 h. For the same compound, the inhibition (Mus musculus [19]) was “inactive”, the EC50 [20] was under 100 nM and the Activity [21] was under 1%. The AUC(0-t) [22] was 25100 ng·h/mL, the Activity [23] was “Non-Toxic” and the EC50 [24] was under 100 nM. The EC50 [25] was under 100 nM, the Activity [26] was under 1% and the inhibition [27] was “Active”. For the same compound, the half-life [28] was 15.8 h, the Tmax [29] was 1.98 min and the Cmax [30] was 1110 ng/mL. For the same compound, the Activity (Homo sapiens) was “Dose-dependent effect”.

In the case of `CCN(CC)CCNC(=O)c1c(C)[nH]c(/C=C2\C(=O)Nc3ccc(F)cc32)c1C` [SUNITINIB], the inhibition [31] is reported as “Active”, the inhibition [32] is reported as “Active” and the inhibition [33] is reported as “Active”. The inhibition [34] was “Active”, the inhibition [35] was “Active” and the inhibition [36] was “Active”.

Source: ChEMBL document CHEMBL4359837, “Discovery of 2-(4-Chloro-3-(trifluoromethyl)phenyl)-N-(4-((6,7-dimethoxyquinolin-4-yl)oxy)phenyl)acetamide (CHMFL-KIT-64) as a Novel Orally Available Potent Inhibitor against Broad-Spectrum Mutants of c-KIT Kinase for Gastrointestinal Stromal Tumors” (J Med Chem, 2019)
